{"source": "the supplement of paper PMC10307832", "assay_in_all_cases": "relative viability (nuclei count vs DMSO), 5 days (fraction); higher = more cells survive", "key": {"[1]": {"tested_on": "NCI-H2347", "outline": "(§1)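 Lung cancer cell lines were seeded in 1536-well plates and dosed by pin tool the next day, with either a single drug or a fixed anchor-drug dose combined with five library-drug doses (not always all listed) spaced in √10 steps. Five days later, one step fixed the cells and stained their nuclei (final 0.05% Triton X-100, 1% formaldehyde, 1 ug/ml Hoechst), and nuclei were counted on 4× images. Relative viability is the nuclei count in treated wells divided by the count in vehicle wells, and each value is the median of duplicate plates.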"}, "[2]": {"tested_on": "SW 1573", "outline": "as §1"}, "[3]": {"tested_on": "HARA", "outline": "as §1"}, "[4]": {"tested_on": "LU99A", "outline": "as §1"}, "[5]": {"tested_on": "UMC-11", "outline": "as §1"}, "[6]": {"tested_on": "NCI-H838", "outline": "as §1"}, "[7]": {"tested_on": "NCI-H2126", "outline": "as §1"}, "[8]": {"tested_on": "EPLC-272H", "outline": "as §1"}, "[9]": {"tested_on": "NCI-H1651", "outline": "as §1"}, "[10]": {"tested_on": "NCI-H1915", "outline": "as §1"}, "[11]": {"tested_on": "NCI-H2342", "outline": "as §1"}, "[12]": {"tested_on": "NCI-H460", "outline": "as §1"}, "[13]": {"tested_on": "HCC-15", "outline": "as §1"}, "[14]": {"tested_on": "NCI-H358", "outline": "as §1"}, "[15]": {"tested_on": "NCI-H2009", "outline": "as §1"}, "[16]": {"tested_on": "NCI-H1993", "outline": "as §1"}, "[17]": {"tested_on": "NCI-H650", "outline": "as §1"}, "[18]": {"tested_on": "NCI-H2085", "outline": "as §1"}, "[19]": {"tested_on": "PC-14", "outline": "as §1"}, "[20]": {"tested_on": "ABC-1", "outline": "as §1"}, "[21]": {"tested_on": "COR-L23", "outline": "as §1"}, "[22]": {"tested_on": "HCC-78", "outline": "as §1"}, "[23]": {"tested_on": "LC-2-ad", "outline": "as §1"}}, "data": [{"smiles": "C[C@@H]1CN(CC(=O)Nc2ccc3c(c2)Cc2cccc(-c4cc(=O)cc(N5CCOCC5)o4)c2S3)C[C@H](C)O1", "note": "+ COc1cc2c(Oc3ccc(NC(=O)C4(C(=O)Nc5ccc(F)cc5)CC4)cc3F)ccnc2cc1OCCCN1CCOCC1 [Foretinib] (partner 0.25 µM)", "values": [{"measurement": "relative viability", "setting": "[1]; first compound 0.04 µM", "result": 0.758}, {"measurement": "relative viability", "setting": "[1]; first compound 0.1265 µM", "result": 0.761}, {"measurement": "relative viability", "setting": "[1]; first compound 0.4 µM", "result": 1.04}, {"measurement": "relative viability", "setting": "[1]; first compound 4 µM", "result": 1.2}, {"measurement": "relative viability", "setting": "[2]; first compound 0.04 µM", "result": 0.683}, {"measurement": "relative viability", "setting": "[2]; first compound 0.1265 µM", "result": 0.946}, {"measurement": "relative viability", "setting": "[2]; first compound 0.4 µM", "result": 0.936}, {"measurement": "relative viability", "setting": "[2]; first compound 4 µM", "result": 0.999}, {"measurement": "relative viability", "setting": "[3]; first compound 0.1265 µM", "result": 0.757}, {"measurement": "relative viability", "setting": "[3]; first compound 0.4 µM", "result": 0.891}, {"measurement": "relative viability", "setting": "[3]; first compound 4 µM", "result": 0.879}, {"measurement": "relative viability", "setting": "[4]; first compound 0.04 µM", "result": 0.79}, {"measurement": "relative viability", "setting": "[4]; first compound 0.1265 µM", "result": 0.959}, {"measurement": "relative viability", "setting": "[4]; first compound 0.4 µM", "result": 1.02}, {"measurement": "relative viability", "setting": "[4]; first compound 4 µM", "result": 0.854}, {"measurement": "relative viability", "setting": "[5]; first compound 0.04 µM", "result": 1.1}, {"measurement": "relative viability", "setting": "[5]; first compound 0.1265 µM", "result": 0.995}, {"measurement": "relative viability", "setting": "[5]; first compound 0.4 µM", "result": 1.1}, {"measurement": "relative viability", "setting": "[5]; first compound 4 µM", "result": 0.746}, {"measurement": "relative viability", "setting": "[6]; first compound 0.04 µM", "result": 0.871}, {"measurement": "relative viability", "setting": "[6]; first compound 0.1265 µM", "result": 0.952}, {"measurement": "relative viability", "setting": "[6]; first compound 0.4 µM", "result": 0.969}, {"measurement": "relative viability", "setting": "[6]; first compound 4 µM", "result": 0.723}, {"measurement": "relative viability", "setting": "[7]; first compound 0.04 µM", "result": 1.17}, {"measurement": "relative viability", "setting": "[7]; first compound 0.1265 µM", "result": 1.12}, {"measurement": "relative viability", "setting": "[7]; first compound 0.4 µM", "result": 1.12}, {"measurement": "relative viability", "setting": "[7]; first compound 4 µM", "result": 1.02}, {"measurement": "relative viability", "setting": "[8]; first compound 0.04 µM", "result": 0.643}, {"measurement": "relative viability", "setting": "[8]; first compound 0.1265 µM", "result": 0.817}, {"measurement": "relative viability", "setting": "[8]; first compound 0.4 µM", "result": 0.761}, {"measurement": "relative viability", "setting": "[8]; first compound 4 µM", "result": 0.674}, {"measurement": "relative viability", "setting": "[9]; first compound 0.04 µM", "result": 0.924}, {"measurement": "relative viability", "setting": "[9]; first compound 0.1265 µM", "result": 1.14}, {"measurement": "relative viability", "setting": "[9]; first compound 0.4 µM", "result": 0.96}, {"measurement": "relative viability", "setting": "[9]; first compound 4 µM", "result": 0.679}, {"measurement": "relative viability", "setting": "[10]; first compound 0.04 µM", "result": 1.06}, {"measurement": "relative viability", "setting": "[10]; first compound 0.1265 µM", "result": 1.13}, {"measurement": "relative viability", "setting": "[10]; first compound 0.4 µM", "result": 1.03}, {"measurement": "relative viability", "setting": "[10]; first compound 4 µM", "result": 1.05}, {"measurement": "relative viability", "setting": "[11]; first compound 0.04 µM", "result": 0.959}, {"measurement": "relative viability", "setting": "[11]; first compound 0.1265 µM", "result": 0.95}, {"measurement": "relative viability", "setting": "[11]; first compound 0.4 µM", "result": 0.973}, {"measurement": "relative viability", "setting": "[11]; first compound 4 µM", "result": 0.908}, {"measurement": "relative viability", "setting": "[12]; first compound 0.04 µM", "result": 0.898}, {"measurement": "relative viability", "setting": "[12]; first compound 0.1265 µM", "result": 1.02}, {"measurement": "relative viability", "setting": "[12]; first compound 0.4 µM", "result": 1.1}, {"measurement": "relative viability", "setting": "[12]; first compound 4 µM", "result": 0.862}, {"measurement": "relative viability", "setting": "[13]; first compound 0.04 µM", "result": 1.05}, {"measurement": "relative viability", "setting": "[13]; first compound 0.1265 µM", "result": 1.06}, {"measurement": "relative viability", "setting": "[13]; first compound 0.4 µM", "result": 1.02}, {"measurement": "relative viability", "setting": "[13]; first compound 4 µM", "result": 0.73}, {"measurement": "relative viability", "setting": "[14]; first compound 0.04 µM", "result": 0.547}, {"measurement": "relative viability", "setting": "[14]; first compound 0.1265 µM", "result": 0.677}, {"measurement": "relative viability", "setting": "[14]; first compound 0.4 µM", "result": 0.682}, {"measurement": "relative viability", "setting": "[14]; first compound 4 µM", "result": 0.4}, {"measurement": "relative viability", "setting": "[15]; first compound 0.04 µM", "result": 1.35}, {"measurement": "relative viability", "setting": "[15]; first compound 0.1265 µM", "result": 1.18}, {"measurement": "relative viability", "setting": "[15]; first compound 0.4 µM", "result": 1.15}, {"measurement": "relative viability", "setting": "[15]; first compound 4 µM", "result": 0.967}, {"measurement": "relative viability", "setting": "[16]; first compound 0.04 µM", "result": 0.811}, {"measurement": "relative viability", "setting": "[16]; first compound 0.1265 µM", "result": 0.711}, {"measurement": "relative viability", "setting": "[16]; first compound 0.4 µM", "result": 0.646}, {"measurement": "relative viability", "setting": "[16]; first compound 4 µM", "result": 0.707}, {"measurement": "relative viability", "setting": "[17]; first compound 0.04 µM", "result": 0.993}, {"measurement": "relative viability", "setting": "[17]; first compound 0.1265 µM", "result": 0.977}, {"measurement": "relative viability", "setting": "[17]; first compound 0.4 µM", "result": 1.03}, {"measurement": "relative viability", "setting": "[17]; first compound 4 µM", "result": 0.875}, {"measurement": "relative viability", "setting": "[18]; first compound 0.04 µM", "result": 1.15}, {"measurement": "relative viability", "setting": "[18]; first compound 0.1265 µM", "result": 0.83}, {"measurement": "relative viability", "setting": "[18]; first compound 0.4 µM", "result": 1.03}, {"measurement": "relative viability", "setting": "[18]; first compound 4 µM", "result": 0.745}, {"measurement": "relative viability", "setting": "[19]; first compound 0.04 µM", "result": 0.94}, {"measurement": "relative viability", "setting": "[19]; first compound 0.1265 µM", "result": 0.864}, {"measurement": "relative viability", "setting": "[19]; first compound 0.4 µM", "result": 0.968}, {"measurement": "relative viability", "setting": "[19]; first compound 4 µM", "result": 0.902}, {"measurement": "relative viability", "setting": "[20]; first compound 0.1265 µM", "result": 1.11}, {"measurement": "relative viability", "setting": "[20]; first compound 0.4 µM", "result": 1.06}, {"measurement": "relative viability", "setting": "[20]; first compound 4 µM", "result": 0.928}, {"measurement": "relative viability", "setting": "[21]; first compound 0.04 µM", "result": 0.991}, {"measurement": "relative viability", "setting": "[21]; first compound 0.1265 µM", "result": 1.05}, {"measurement": "relative viability", "setting": "[21]; first compound 0.4 µM", "result": 1.02}, {"measurement": "relative viability", "setting": "[21]; first compound 4 µM", "result": 0.929}, {"measurement": "relative viability", "setting": "[22]; first compound 0.04 µM", "result": 0.554}, {"measurement": "relative viability", "setting": "[22]; first compound 0.1265 µM", "result": 0.579}, {"measurement": "relative viability", "setting": "[22]; first compound 0.4 µM", "result": 0.513}, {"measurement": "relative viability", "setting": "[22]; first compound 4 µM", "result": 0.468}, {"measurement": "relative viability", "setting": "[23]; first compound 0.04 µM", "result": 0.863}, {"measurement": "relative viability", "setting": "[23]; first compound 0.1265 µM", "result": 0.921}, {"measurement": "relative viability", "setting": "[23]; first compound 0.4 µM", "result": 0.913}, {"measurement": "relative viability", "setting": "[23]; first compound 4 µM", "result": 0.874}]}]}
